# Results: ChEMBL document CHEMBL5725356, “Anti-fibrotic pyridinones” (2017)
# Assay: ET-1 Assay: Fibroblasts (primary human lung and dermal, HFL-1, 3T3 etc) are seeded in 96-well plates at ~15000 cells/well and serum starved for 0-48 hours. After media exchange, compounds serially diluted in DMSO are added to the cells. After a brief incubation of ~30 min, stimulants (TGFb, serum, LPA etc) are added followed by further incubation for 16-48 hours. Media is then harvested and stored frozen in plate format for later endothelin-1 (ET-1) determination by ELISA. Toxicity measurements are made using the ATPlite kit (Perkin-Elmer). ET-1 is quantified using an ELISA kit (R&D Systems). The amount of ET-1 produced in the assay wells are back-calculated using the ELISA standard. The ability of a compound to inhibit ET-1 production is typically analyzed by fitting dose-response curves to a 4-parameter logistic function to obtain an EC50 value.
# Conditions: HFL1
row,Compound,EC50
1,Cc1cc(=O)n(-c2ccc(F)cc2)cc1-c1ccc(OC(F)(F)F)cc1,in the range around 125 µM
2,Cn1cc(-c2cn(-c3ccc(OC(F)(F)F)cc3)c(=O)c3c2CCCC3)cn1,< 50 µM
3,Cc1cc(=O)n(-c2ccccc2NC(N)=O)cc1-c1ccc(F)cc1,< 50 µM
4,CNc1cc(=O)n(-c2ccc(OC(F)(F)F)cc2)cc1-c1ccc(F)cc1,> 200 µM
5,CCC(=O)Nc1cc(=O)n(-c2ccc(OC(F)(F)F)cc2)cc1-c1ccc(F)cc1,> 200 µM
6,O=c1cc(OCCN2CCS(=O)(=O)CC2)c(-c2ccc(F)cc2)cn1-c1ccc(OC(F)(F)F)cc1,> 200 µM
7,CCn1ccc2c(-c3cnn(C)c3)cn(-c3ccc(OC(F)(F)F)cc3)c(=O)c21,< 50 µM
8,CCOc1ccc(CNc2cc(=O)n(-c3ccc(OC(F)(F)F)cc3)cc2-c2cnn(C)c2)c(F)c1,< 50 µM
9,O=c1ccc(-c2ccc(F)cc2)nn1-c1ccc(OC(F)(F)F)cc1,> 200 µM
10,CCOc1ccc(-n2cc(-c3cn[nH]c3)c3c(c2=O)CCCC3)c(C)c1,< 50 µM
11,O=c1ccc(C2CCCCC2)cn1-c1ccccc1,in the range around 125 µM
12,C#Cc1ccc(=O)n(-c2ccccc2)c1,> 200 µM
13,Cn1cc(-c2cn(-c3ccc(OC(F)(F)F)cc3)c(=O)cc2NC(=O)OCc2ccccc2)cn1,in the range around 125 µM
14,O=c1ccc(-c2cccc(Cl)c2)cn1-c1cccc(F)c1,< 50 µM
15,CCc1cc(=O)n(-c2ccc(OC(F)(F)F)cc2)cc1-c1cnn(C)c1,in the range around 125 µM
16,Cn1cc(-c2cn(-c3ccc(C#N)cc3)c(=O)c3cccnc23)cn1,in the range around 125 µM
17,Cc1cc(=O)n(-c2ccc(OC(F)(F)F)cc2)cc1-c1nnnn1C,> 200 µM
18,O=c1c2[nH]ccc2c(-c2cn[nH]c2)cn1-c1ccc(Cl)cc1,< 50 µM
19,Cn1cc(-c2cn(-c3ccc(OC(F)(F)F)cc3)c(=O)cc2N2CCOCC2)cn1,< 50 µM
20,O=c1ccc(-c2ccnnc2)cn1-c1ccc(OC(F)(F)F)cc1,in the range around 125 µM
21,Cc1cc(-c2cnn(C)c2)cn(-c2ccc(OC(F)(F)F)cc2)c1=O,in the range around 125 µM
22,Cc1cc(=O)n(-c2ccc(Cl)cc2)cc1-c1ccc2ocnc2c1,> 200 µM
23,COCCOc1cc(=O)n(-c2ccc(OC(F)(F)F)cc2)cc1-c1ccc(F)cc1,> 200 µM
24,Cc1cc(=O)n(-c2cccc(N)c2)cc1-c1ccc(F)cc1,in the range around 125 µM
25,CC(C)n1ccc2c(-c3cnn(C)c3)cn(-c3ccc(OC(F)(F)F)cc3)c(=O)c21,< 50 µM

row,Compound,EC50
1,Cn1cc(-c2cn(-c3ccc(OC(F)(F)F)cc3)c(=O)cc2NCc2c(Cl)cccc2Cl)cn1,> 200 µM
2,O=c1ccc(-c2cn[nH]c2)cn1-c1ccc(OC(F)(F)F)cc1,< 50 µM
3,Cn1cc(-c2cn(-c3ccc(OC(F)(F)F)cc3)c(=O)c3scnc23)cn1,< 50 µM
4,CN1CCN(CCOc2cc(=O)n(-c3ccc(OC(F)(F)F)cc3)cc2-c2cnn(C)c2)CC1,in the range around 125 µM
5,Cc1cc(=O)n(-c2ccc(C(F)(F)F)cc2)cc1-c1ccccc1,< 50 µM
6,Cn1cc(-c2cn(-c3ccc(OC(F)(F)F)cc3)c(=O)cc2N)cn1,> 200 µM
7,Cc1cc(=O)[nH]cc1-c1ccc2c(c1)OCC(=O)N2C,< 50 µM
8,Cn1cc(-c2c[nH]c(=O)cc2NCc2ncccn2)cn1,< 50 µM
9,CCn1c(=O)oc2cc(-c3cn(-c4ccc(OC(F)(F)F)cc4)c(=O)cc3C)ccc21,< 50 µM
10,O=c1c2[nH]cnc2c(-c2cn[nH]c2)cn1-c1ccc(OC(F)(F)F)cc1,< 50 µM
11,Cn1cc(-c2cn(-c3ccc(OC(F)(F)F)cc3)c(=O)cc2NCc2ccc(C#N)cc2)cn1,> 200 µM
12,COCCOc1ccc(-n2cc(-c3ccccc3)c(C)cc2=O)cc1,< 50 µM
13,CCOc1ccc(-n2cc(-c3cnn(C)c3)c(NCc3ccccc3)cc2=O)c(C)c1,< 50 µM
14,Cc1cc(=O)n(-c2ccc(OC(F)(F)F)cc2)cc1-c1nnn(C)n1,> 200 µM
15,O=c1ccc(-c2cccc(Cl)c2)cn1-c1cccc(C(F)(F)F)c1,< 50 µM
16,Cn1cc(-c2cn(-c3ccc(OC(F)(F)F)cc3)c(=O)c3c2CCN3C(=O)OC(C)(C)C)cn1,< 50 µM
17,Cn1cc(-c2cn(-c3ccc(OC(F)(F)F)cc3)c(=O)cc2OCCN2CCOCC2)cn1,> 200 µM
18,CCOc1ccc(-n2cc(-c3ccc(F)cc3)c3nccnc3c2=O)c(C)c1,> 200 µM
19,CC(=O)Nc1cc(=O)n(-c2ccc(OC(F)(F)F)cc2)cc1-c1ccc(F)cc1,> 200 µM
20,Cn1cc(-c2c[nH]c(=O)cc2NCc2ccccn2)cn1,in the range around 125 µM
21,CC(=O)n1cc(-c2ccc(=O)n(-c3ccccc3)c2)cn1,> 200 µM
22,Cn1cc(-c2cn(-c3ccc(Cl)cc3)c(=O)c3cccnc23)cn1,> 200 µM
23,CCOc1ccc(-n2cc(-c3cnn(C)c3)c(NCc3cc(F)cc(F)c3)cc2=O)c(C)c1,< 50 µM
24,CCn1nnc2c(=O)[nH]cc(-c3cnn(C)c3)c21,> 200 µM
25,Cn1cc(-c2cn(-c3ccc(OC(F)(F)F)cc3)c(=O)cc2NCc2ccc(F)cc2)cn1,< 50 µM

row,Compound,EC50
1,COc1cc(=O)n(-c2ccc(OC(F)(F)F)cc2)cc1-c1cnn(C)c1,< 50 µM
2,Cc1cc(=O)n(-c2ccc(Cl)cc2)cc1-c1cn[nH]c1,> 200 µM
3,Cn1cc(-c2cn(-c3ccc(OC(F)(F)F)cc3)c(=O)cc2Oc2ccc(F)cc2)cn1,< 50 µM
4,CC(C)Oc1ccc(-n2cc(-c3cn[nH]c3)ccc2=O)cc1,in the range around 125 µM
5,Cc1cc(=O)n(-c2ccc3[nH]cnc3c2)cc1-c1cnn(C)c1,> 200 µM
6,O=c1c2c(c(-c3cccc(F)c3)cn1-c1ccc(OC(F)(F)F)cc1)CCCC2,< 50 µM
7,Cc1cc(=O)n(-c2ccc(OC(F)(F)F)cc2)cc1-c1ccc2nccn2c1,in the range around 125 µM
8,CCOc1ccc(-n2cc(-c3ccc(F)cc3)c(OC)cc2=O)c(C)c1,< 50 µM
9,Cc1cc(=O)n(-c2ccc(Cl)cc2C)cc1-c1cnn(C)c1,in the range around 125 µM
10,Cn1cc(-c2cc(=O)n(-c3ccc(OC(F)(F)F)cc3)cc2-c2cnn(C)c2)cn1,in the range around 125 µM
11,O=c1c2ncn(Cc3ccccc3)c2c(-c2ccc(F)cc2)cn1-c1ccc(OC(F)(F)F)cc1,> 200 µM
12,Cn1cc(-c2cn(-c3ccc(C#N)cc3)c(=O)c3nccnc23)cn1,> 200 µM
13,CC(=O)Nc1cccc(-n2cc(C(F)(F)F)ccc2=O)c1,> 200 µM
14,CCn1cc2c(-c3cnn(C)c3)cn(-c3ccc(OC(F)(F)F)cc3)c(=O)c2n1,< 50 µM
15,Cn1cc(-c2cn(-c3ccc(OC(F)(F)F)cc3)c(=O)cc2NCc2cccnc2)cn1,in the range around 125 µM
16,O=c1c2[nH]nnc2c(-c2ccc(F)cc2)cn1-c1ccc(OC(F)(F)F)cc1,in the range around 125 µM
17,O=c1ccc(C(F)(F)F)cn1-c1ccccc1Cl,> 200 µM
18,O=c1cc(Cl)c(-c2ccc(F)cc2)cn1-c1ccc(OC(F)(F)F)cc1,< 50 µM
19,O=c1ccc2c(n1-c1ccc(OC(F)(F)F)cc1)CCC2,in the range around 125 µM
20,CCOC(=O)Nc1cc(=O)n(-c2ccc(OC(F)(F)F)cc2)cc1-c1cnn(C)c1,> 200 µM
21,CCOc1ccc(-n2cc(-c3ccc(F)cc3)c(C)cc2=O)c(C)c1,in the range around 125 µM
22,Cc1ccc(=O)n(-c2ccccc2F)c1,> 200 µM
23,Cn1cc(-c2cn(-c3ccc(OC(F)(F)F)cc3)c(=O)c3c2ccn3Cc2ccccc2)cn1,< 50 µM
24,Cn1cc(-c2cn(-c3cccc(NC(N)=O)c3)c(=O)cc2Oc2ccccc2)cn1,< 50 µM
25,N#Cc1ccc(-n2cc(-c3cn[nH]c3)c3ncccc3c2=O)cc1,> 200 µM

row,Compound,EC50
1,Cc1cc(=O)n(-c2ccc(OC(F)(F)F)cc2)cc1-c1ccc2c(c1)OCC(=O)N2CCO,> 200 µM
2,O=c1c2[nH]ccc2c(-c2ccc(F)cc2)cn1-c1ccc(OC(F)(F)F)cc1,< 50 µM
3,O=c1c2c(ccn2C2CC2)c(-c2cn[nH]c2)cn1-c1ccc(OC(F)(F)F)cc1,< 50 µM
4,O=c1ccc(-c2cn[nH]c2)cn1-c1ccc(Cl)cc1,> 200 µM
5,CCCCOC(=O)Nc1cc(=O)n(-c2ccc(OC(F)(F)F)cc2)cc1-c1cnn(C)c1,in the range around 125 µM
6,Cc1ccc(=S)n(-c2ccc(F)cc2)c1,> 200 µM
7,Cc1cc(=O)n(-c2cccc3c2OCCO3)cc1-c1cnn(C)c1,in the range around 125 µM
8,COCCOc1ccc(-n2cc(-c3cnn(C)c3)c(Oc3ccccc3)cc2=O)cc1,< 50 µM
9,Cc1cc(=O)n(-c2ccc(OC(F)(F)F)cc2)cc1-c1ccc2c(ccn2C)c1,> 200 µM
10,O=c1ccc(-c2ccc(F)cc2)cn1CCc1ccccc1,in the range around 125 µM
11,O=c1cc(Oc2ccccc2)c(-c2ccc(F)cc2)cn1-c1ccc(OC(F)(F)F)cc1,> 200 µM
12,Cn1cc(-c2cn(-c3ccc(OC(F)(F)F)cc3)c(=O)c3[nH]nnc23)cn1,< 50 µM
13,COCCOCCOCCOc1cccc(-n2cc(C)ccc2=O)c1,> 200 µM
14,Cc1cc(-c2ccc(F)cc2)cn(-c2ccc(OC(F)(F)F)cc2)c1=O,in the range around 125 µM
15,CN1CCC(Oc2cc(=O)n(-c3ccc(OC(F)(F)F)cc3)cc2-c2cnn(C)c2)CC1,< 50 µM
16,Cc1cc(=O)n(-c2ccc(OC(F)(F)F)cc2)cc1-c1nn[nH]n1,> 200 µM
17,CC(C)OCCn1ccc2c(-c3cn[nH]c3)cn(-c3ccc(OC(F)(F)F)cc3)c(=O)c21,< 50 µM
18,CN1CCN(CCOc2cc(=O)n(-c3ccc(OC(F)(F)F)cc3)cc2-c2ccc(F)cc2)CC1,< 50 µM
19,Cc1cc(=O)n(-c2cccc(NC(N)=O)c2)cc1-c1ccc(F)cc1,< 50 µM
20,O=c1ccc(Br)cn1-c1ccc(F)cc1,> 200 µM
21,Cc1cc(=O)n(-c2cccc(NC(=O)N(C)C)c2)cc1-c1ccc(F)cc1,< 50 µM
22,CCn1nnc2c(=O)n(-c3ccc(OC(F)(F)F)cc3)cc(-c3ccc(F)cc3)c21,< 50 µM
23,CCn1ccc2c(-c3cn[nH]c3)cn(-c3ccc(OC(F)(F)F)cc3)c(=O)c21,< 50 µM
24,O=c1cc(OCCN2CCCC2)c(-c2ccc(F)cc2)cn1-c1ccc(OC(F)(F)F)cc1,< 50 µM
